# Laboratory results taken from patent US5380746A, “Bis-(1H-indol-3-YL)-maleinimide derivatives, processes for the preparation thereof and pharmaceutical compositions containing them” (Goedecke Aktiengesellschaft, priority 1989, dated 1995).
# Assays:
# Format in all cases: biochemical
# [1] = target: protein kinase C; assay: enzyme assay of protein kinase C; conditions: read-out: 50% inhibition at a concentration of, enzyme assay of protein kinase C
# [2] = target: A-kinase (Homo sapiens, UniProt P17612); assay: inhibition of the A-kinase; conditions: read-out: IC values of the inhibition of the A-kinase
# [3] = target: T1, G-kinase (Homo sapiens, UniProt Q13976); assay: inhibition of the G-kinase; conditions: read-out: IC values of the inhibition of the G-kinase
# T1 sequence (Q13976 1-671): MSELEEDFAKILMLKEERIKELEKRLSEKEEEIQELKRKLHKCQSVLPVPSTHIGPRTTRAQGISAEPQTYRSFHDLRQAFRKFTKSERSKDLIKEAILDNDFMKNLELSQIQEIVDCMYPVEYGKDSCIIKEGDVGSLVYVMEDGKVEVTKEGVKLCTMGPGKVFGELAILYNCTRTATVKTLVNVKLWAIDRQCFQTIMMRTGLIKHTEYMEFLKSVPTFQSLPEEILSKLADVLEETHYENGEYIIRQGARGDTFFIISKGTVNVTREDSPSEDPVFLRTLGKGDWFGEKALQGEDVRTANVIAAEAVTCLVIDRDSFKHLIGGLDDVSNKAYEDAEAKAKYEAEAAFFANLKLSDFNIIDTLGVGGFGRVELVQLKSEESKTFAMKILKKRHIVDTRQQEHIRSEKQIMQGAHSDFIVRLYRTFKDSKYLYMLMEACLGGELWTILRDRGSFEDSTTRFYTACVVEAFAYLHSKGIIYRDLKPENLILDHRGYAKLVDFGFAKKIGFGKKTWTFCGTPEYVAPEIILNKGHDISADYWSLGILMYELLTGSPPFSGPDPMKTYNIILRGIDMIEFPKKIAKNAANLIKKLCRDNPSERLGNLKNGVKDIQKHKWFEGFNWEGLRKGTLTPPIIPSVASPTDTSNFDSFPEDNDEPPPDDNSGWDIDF
# [4] = target: MLC-kinase; assay: inhibition of the MLC-kinase; conditions: read-out: IC values of the inhibition of the MLC-kinase
smiles,measurement,setting,value
"Cn1cc(C2=C(c3c[nH]c4ccccc34)C(=O)NC2=O)c2ccccc21 [Example 1, 2-(1H-Indol-3-yl)-3-(1-methyl-1H-indol-3-yl)maleinimide]",IC50,[1],0.14 µM
same,IC50,[2],77 µM
same,IC50,[3],15 µM
same,IC50,[4],4.5 µM
